What was measured:
Format in all cases: functional
Alternaria alternata = test: Fungicidal activity against Alternaria alternata APS-38 assessed as mycelial growth inhibition at 25 mg/L after 3 days; conditions: APS-38, 72 h, read-out: GI
Gaeumannomyces graminis = test: Fungicidal activity against Gaeumannomyces graminis MAFF305168 assessed as mycelial growth inhibition at 25 mg/L after 1 day; conditions: MAFF305168, 24 h, read-out: GI
Rhizoctonia solani = test: Fungicidal activity against Rhizoctonia solani ET0007 assessed as mycelial growth inhibition at 25 mg/L after 1 day; conditions: ET0007, 24 h, read-out: GI
Microdochium nivale = test: Fungicidal activity against Microdochium nivale IFO-7432 assessed as mycelial growth inhibition at 25 mg/L after 3 days; conditions: IFO-7432, 72 h, read-out: GI
Zymoseptoria tritici = test: Fungicidal activity against Zymoseptoria tritici S3 assessed as mycelial growth inhibition at 25 mg/L after 14 days; conditions: S3, 336 h, read-out: GI
Rhynchosporium secalis = test: Fungicidal activity against Rhynchosporium secalis IFO-5290 assessed as mycelial growth inhibition at 25 mg/L after 14 days; conditions: IFO-5290, 336 h, read-out: GI
Cercospora beticola = test: Fungicidal activity against Cercospora beticola Be-2-6 assessed as mycelial growth inhibition at 25 mg/L after 7 days; conditions: Be-2-6, 168 h, read-out: GI
Fusarium graminearum = test: Fungicidal activity against Fusarium graminearum H3 assessed as mycelial growth inhibition at 25 mg/L after 3 days; conditions: H3, 72 h, read-out: GI
Pyrenophora graminea = test: Fungicidal activity against Pyrenophora graminea IFO-7507 assessed as mycelial growth inhibition at 25 mg/L after 3 days; conditions: IFO-7507, 72 h, read-out: GI

COCC(=O)n1oc(C)cc1=O
inhibition of growth at 25 µg/mL (Alternaria alternata): 62% | inhibition of growth at 25 µg/mL (Gaeumannomyces graminis): 54% | inhibition of growth at 25 µg/mL (Rhizoctonia solani): 68% | inhibition of growth at 25 µg/mL (Microdochium nivale): 45% | inhibition of growth at 25 µg/mL (Zymoseptoria tritici): 63% | inhibition of growth at 25 µg/mL (Rhynchosporium secalis): 100% | inhibition of growth at 25 µg/mL (Cercospora beticola): 91% | inhibition of growth at 25 µg/mL (Fusarium graminearum): 37% | inhibition of growth at 25 µg/mL (Pyrenophora graminea): 82%

Cc1cc(=O)n(C(=O)C(C)(C)Oc2ccc(Cl)cc2)o1
inhibition of growth at 25 µg/mL (Alternaria alternata): 53% | inhibition of growth at 25 µg/mL (Gaeumannomyces graminis): 29% | inhibition of growth at 25 µg/mL (Rhizoctonia solani): 3% | inhibition of growth at 25 µg/mL (Microdochium nivale): 23% | inhibition of growth at 25 µg/mL (Zymoseptoria tritici): 73% | inhibition of growth at 25 µg/mL (Rhynchosporium secalis): 100% | inhibition of growth at 25 µg/mL (Cercospora beticola): 74% | inhibition of growth at 25 µg/mL (Fusarium graminearum): 6% | inhibition of growth at 25 µg/mL (Pyrenophora graminea): 81%

CCC(=O)n1oc(C)cc1=O
inhibition of growth at 25 µg/mL (Alternaria alternata): 87% | inhibition of growth at 25 µg/mL (Gaeumannomyces graminis): 50% | inhibition of growth at 25 µg/mL (Rhizoctonia solani): 22% | inhibition of growth at 25 µg/mL (Microdochium nivale): 68% | inhibition of growth at 25 µg/mL (Zymoseptoria tritici): 69% | inhibition of growth at 25 µg/mL (Rhynchosporium secalis): 100% | inhibition of growth at 25 µg/mL (Cercospora beticola): 94% | inhibition of growth at 25 µg/mL (Fusarium graminearum): 32% | inhibition of growth at 25 µg/mL (Pyrenophora graminea): 88%

Reference: ChEMBL document CHEMBL3044528, “Potential new fungicides: N-acyl-5-methyl-3(2H)-isoxazolone derivatives” (2012)
